This note sets out measurements from PubChem BioAssay (NCI).

As usually defined, the GI50 is the concentration at which growth is held to half of that of the control. Broadly, the TGI is the concentration giving total growth inhibition. Higher therefore signals less potent growth arrest.

Among the test systems are EKVX NSCLC; HCT-116 colon; HCT-15 colon; LOX IMVI melanoma; MDA-MB-231 breast; OVCAR-3 ovarian; OVCAR-8 ovarian; SF-295 CNS; SK-OV-3 ovarian; UO-31 renal.
Common to all, as to test: DTP human tumour cell line panel, 48 h

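Growth conditions: 96-well plates. Treatment: test compound, 48 hours, 5 concentrations. Analysis: linear interpolation between bracketing concentrations; unreached endpoints set to highest concentration. GI50 = concentration required for 50% inhibition of growth. TGI is the concentration that stops growth completely.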

As for `CC(C)=Cc1cc(C)c2ccc(C)c3c2c1C(C)=C(O)C3=O`, the GI50 with EKVX NSCLC is 40.8 µM; in the test with HCT-116 colon, 17.7 µM; in the test on HCT-15 colon, over 100 µM; in the test on LOX IMVI melanoma, 69.3 µM; in the test on MDA-MB-231 breast, 20.4 µM; with OVCAR-3 ovarian it was 15.6 µM. The GI50 in the test with OVCAR-8 ovarian is 36.6 µM; in the test on SF-295 CNS, 31.4 µM; in the test on SK-OV-3 ovarian, 27.4 µM; with UO-31 renal, 23.5 µM. Also, the TGI in the test on EKVX NSCLC was over 100 µM; in the test with HCT-116 colon, 34.8 µM; in the test on HCT-15 colon, over 100 µM; with LOX IMVI melanoma it was over 100 µM; with MDA-MB-231 breast it was 43.3 µM; with OVCAR-3 ovarian, 49.2 µM. Besides, the total growth inhibition concentration (TGI) in the test on OVCAR-8 ovarian is over 100 µM; in the test on SF-295 CNS, 94.9 µM; in the test with SK-OV-3 ovarian it was 81.2 µM; with UO-31 renal, over 100 µM.

Consider `NC(N)=NC(N)=Nc1ccc(C(=O)O)cc1`, for which the TGI in the test with EKVX NSCLC, with HCT-116 colon, in the test on HCT-15 colon, in the test with LOX IMVI melanoma, in the test on MDA-MB-231 breast and with OVCAR-3 ovarian was over 100 µM throughout. In addition, the TGI in the test with OVCAR-8 ovarian, in the test on SF-295 CNS, in the test with SK-OV-3 ovarian and with UO-31 renal was over 100 µM in each case.

`CCC[CH2][Sn]([CH2]CCC)([CH2]CCC)/[C](=C/[Si](C)(C)c1ccccc1)c1ccc2c(c1)OCO2`: the GI50 is 15.2 µM with EKVX NSCLC; 17.9 µM with HCT-116 colon; 20.5 µM with HCT-15 colon; 21.3 µM in the test with LOX IMVI melanoma; 14.8 µM in the test with MDA-MB-231 breast; 19.8 µM with OVCAR-3 ovarian. The GI50 in the test on OVCAR-8 ovarian was 19.1 µM; in the test on SF-295 CNS it was 26.8 µM; with SK-OV-3 ovarian, 18.5 µM; with UO-31 renal, 18.6 µM. Besides, the concentration for total growth inhibition (TGI) in the test on EKVX NSCLC amounted to 50.7 µM; with HCT-116 colon, 41 µM; in the test with HCT-15 colon, 51.8 µM; with LOX IMVI melanoma, 66.7 µM; in the test on MDA-MB-231 breast it was 32.8 µM; with OVCAR-3 ovarian it was 40.2 µM. For the same compound, the TGI in the test with OVCAR-8 ovarian was 37.9 µM; with SF-295 CNS, 49.6 µM; with SK-OV-3 ovarian it was 41 µM; in the test with UO-31 renal, 33.6 µM.

Consider `O=C1OCC2=C1C(c1cccc(C(F)(F)F)c1)c1cc3c(cc1N2CCO)OCCO3` (stereo not given), for which the GI50 in the test with EKVX NSCLC is 1.33 µM; with HCT-116 colon, 1.42 µM; in the test with HCT-15 colon it was 0.967 µM; with LOX IMVI melanoma, 1.66 µM; in the test with MDA-MB-231 breast, 1.7 µM; in the test on OVCAR-3 ovarian it was 1.24 µM. Further, the GI50 in the test on OVCAR-8 ovarian was 1.29 µM; in the test on SF-295 CNS it was 0.895 µM; in the test with SK-OV-3 ovarian, 1.29 µM; in the test with UO-31 renal, 1.95 µM. For the same compound, the TGI in the test on EKVX NSCLC, in the test on HCT-116 colon, in the test with HCT-15 colon, with LOX IMVI melanoma, in the test on MDA-MB-231 breast and with OVCAR-3 ovarian was over 33.3 µM throughout. In addition, the TGI in the test with OVCAR-8 ovarian, with SF-295 CNS, in the test with SK-OV-3 ovarian and in the test on UO-31 renal was over 33.3 µM in each case.

For `O=C(O)COc1ccc(OCC(=O)O)cc1`, the GI50 is 6.43 µM in the test on EKVX NSCLC; 0.612 µM with HCT-116 colon; 9.43 µM in the test on HCT-15 colon; 0.276 µM in the test with LOX IMVI melanoma; 3.06 µM in the test with MDA-MB-231 breast; 2.5 µM in the test with OVCAR-3 ovarian. The GI50 in the test with OVCAR-8 ovarian is 0.911 µM; with SF-295 CNS, 0.445 µM; with SK-OV-3 ovarian, 0.644 µM; in the test with UO-31 renal, 5.4 µM. The TGI in the test on EKVX NSCLC is 74.4 µM; in the test on HCT-116 colon it was 10.3 µM; with HCT-15 colon, over 100 µM; with LOX IMVI melanoma, 2.34 µM; in the test on MDA-MB-231 breast, 16.2 µM; with OVCAR-3 ovarian it was 36.3 µM. Moreover, the TGI with OVCAR-8 ovarian came out at 10.8 µM; in the test on SF-295 CNS it was 11.3 µM; in the test with SK-OV-3 ovarian it was 19.8 µM; in the test on UO-31 renal it was 27.5 µM.

Consider `O=C1CS/C(=N/S(=O)(=O)c2ccc(N3N=C4c5ccccc5CC4C3c3cccs3)cc2)N1C(=O)c1ccccc1` (stereo not given), for which the GI50 in the test on EKVX NSCLC was 42.4 µM; with HCT-116 colon, 22 µM; in the test with HCT-15 colon, 56.3 µM; with LOX IMVI melanoma, 22.7 µM; in the test on MDA-MB-231 breast, 44.6 µM; in the test on OVCAR-3 ovarian, 59.2 µM. Further, the GI50 was 45.7 µM in the test with OVCAR-8 ovarian, 31.7 µM with SF-295 CNS, over 100 µM with SK-OV-3 ovarian and over 100 µM in the test on UO-31 renal. Besides, the TGI with EKVX NSCLC was over 100 µM; in the test on HCT-116 colon, 55.9 µM; with HCT-15 colon, over 100 µM; with LOX IMVI melanoma, 54 µM; in the test with MDA-MB-231 breast, over 100 µM; in the test with OVCAR-3 ovarian, over 100 µM. Besides, the concentration for total growth inhibition (TGI) with OVCAR-8 ovarian, in the test on SF-295 CNS, with SK-OV-3 ovarian and with UO-31 renal was over 100 µM throughout.

Regarding `CCCCC#Cc1c(I)n(C2OC(CO[Si](C)(C)C(C)(C)C)C3OC(C)(C)OC32)c(=O)n(C(=O)c2ccccc2)c1=O` (stereo not given), the GI50 is 18.5 µM in the test with EKVX NSCLC; 1.36 µM in the test on HCT-116 colon; 1.63 µM in the test with HCT-15 colon; 5.54 µM in the test on LOX IMVI melanoma; 17.7 µM in the test on MDA-MB-231 breast; 1.47 µM in the test with OVCAR-3 ovarian. Besides, the GI50 in the test with OVCAR-8 ovarian is 5.61 µM; with SF-295 CNS, 12.7 µM; in the test with SK-OV-3 ovarian it was 14.8 µM; in the test with UO-31 renal it was 1.97 µM. Also, the TGI with EKVX NSCLC is 38.9 µM; with HCT-116 colon, 2.74 µM; with HCT-15 colon it was over 100 µM; in the test on LOX IMVI melanoma, 38.5 µM; with MDA-MB-231 breast it was 37.7 µM; in the test with OVCAR-3 ovarian, 2.82 µM. The TGI in the test on OVCAR-8 ovarian came out at 18.6 µM; in the test on SF-295 CNS it was 27.3 µM; in the test with SK-OV-3 ovarian, 27.9 µM; in the test on UO-31 renal it was 7.51 µM.

Take `CCN(CC)CCCNCc1cc(-c2ccccc2)nc2cc(Cl)ccc12`: the GI50 with EKVX NSCLC is 7.85 µM; with HCT-116 colon, 1.46 µM; in the test with HCT-15 colon, 3.1 µM; in the test with LOX IMVI melanoma, 1.87 µM; in the test on MDA-MB-231 breast, 1.45 µM; in the test with OVCAR-3 ovarian, 7.58 µM. Moreover, the GI50 in the test with OVCAR-8 ovarian was 5.81 µM; in the test on SF-295 CNS it was 1.8 µM; in the test on SK-OV-3 ovarian it was 11.7 µM; in the test with UO-31 renal it was 1.78 µM. In addition, the TGI worked out at 24.3 µM in the test on EKVX NSCLC; 4.28 µM in the test with HCT-116 colon; 10.2 µM in the test with HCT-15 colon; 4.27 µM with LOX IMVI melanoma; 4.24 µM with MDA-MB-231 breast; 20.5 µM with OVCAR-3 ovarian. Further, the TGI worked out at 18.8 µM in the test on OVCAR-8 ovarian, 4.37 µM in the test on SF-295 CNS, 24.1 µM in the test on SK-OV-3 ovarian and 11.5 µM with UO-31 renal.
